Measurements taken from paper PMC7721954, “Preclinical comparison of four [^18F, ^natGa]rhPSMA-7 isomers: influence of the stereoconfiguration on pharmacokinetics” (EJNMMI Research, 2020).

Experiments:
PSMA = target: T1, PSMA (Homo sapiens, UniProt Q04609); assay: Competitive binding (IC50) on LNCaP cells vs ([125I]I-BA)KuE; conditions: 1 h, 4 °C, n = 5-9, read-out: IC50 (binding affinity)
T1 construct: host or cells: LNCaP cells
Method: (§1) Competitive binding studies were determined on LNCaP cells (1.5 × 10^5 cells in 1 mL/well) after incubation at 4 °C for 1 h, using (((S)-1-carboxy-5-(4-([^125I]iodo)benzamido)pentyl)carbamoyl)-L-glutamic acid (([^125I]I-BA)KuE; 0.2 nM/well) as reference radioligand (n = 5–9). Internalization studies of the radiolabeled ligands (0.5 nM/well) were performed on LNCaP cells (1.25 × 10^5 cells in 1 mL/well) at 37 °C for 1 h and accompanied by ([^125I]I-BA)KuE (0.2 nM/well), as reference. Data were corrected for non-specific binding and normalized to the specific internalization observed for the reference (n = 3–6). A detailed description of the experimental procedures was previously published.

LNCaP tumor-bearing mice = assay: Differential uptake and excretion pattern of isomers after injection of the diastereomeric mixture (radio-HPLC); format: in vivo; conditions: blood, liver, kidney and tumor, 30 min p.i., n = 4
Method: With the intention to identify even marginal differences in the in vivo behavior, all four [^18F, ^natGa]rhPSMA-7 isomers were co-evaluated in one single tumor-bearing mouse in order to quantify the differential uptake and excretion pattern of each isomer. For this purpose, the diastereomeric mixture [^18F, ^natGa]rhPSMA-7 was produced in high molar activity (AM) of 247–349 GBq/µmol (at end of synthesis) and the abundance of each isomer was determined by radio-HPLC. Mice (n = 4) were injected with [^18F, ^natGa]rhPSMA-7 (180–280 MBq, 0.9–1.0 nmol) and left under anesthesia. After 30 min p.i., they were sacrificed and urine, blood, liver, kidneys and tumor were collected and processed. Radioactivity was extracted from solid tissues by means of a Potter–Elvehjem tissue grinder (n = 1) or a ball mill (n = 3) and separated from the protein fraction by subsequent cartridge-based solid-phase extraction (SPE). Blood samples were diluted, centrifuged and the supernatant was purified by SPE (see supporting information). Urine and extracts from tissue samples were then analyzed by radio-HPLC to quantify the fraction of each isomer in each sample. Finally, the relative percentage difference between the abundance of each isomer in the injected diastereomeric mixture (values taken from the quality control) and the abundance of the respective isomer in each analyzed tissue or body fluid was calculated. […] PeakFit allows for automated nonlinear separation, analysis and quantification of HPLC elution profiles by deconvolution procedures that uses a Gaussian response function with a Fourier deconvolution/filtering algorithm (see Additional file 1: Fig. 7).
Extraction via the Potter-Elvehjem Tissue Grinder. Tumor and kidneys were separately homogenized in the tissue homogeniser with 1 mL of extraction buffer (850 μL 1 M HEPES pH 7.4, 100 μL 20 mM PMPA and 100 μL 1 M NaCl) for 30 min. The resulting homogenate was collected and centrifuged at 13000×g for 5 min. Subsequently, the supernatant was collected, centrifuged again (13000×g, 5 min) and loaded on a Strata X cartridge (33 μm Polymeric Reversed Phase 500 mg) preconditioned with 5 mL MeOH, followed by 5 mL H2O. After washing with 5 mL H2O, the cartridge was eluted with a 3:2 mixture (v/v) of MeCN in H2O supplemented with 1% TFA. For radio-HPLC analysis the eluates were diluted with water.
Extraction via the MM-400 Ball Mill. The samples (tumor, kidney, liver) were separately homogenized in a 2 mL tube together with 3 grinding balls (3 mm diameter) and 1 mL of extraction buffer (850 μL 1 M HEPES pH 7.4, 100 μL 20 mM PMPA and 100 μL 1 M NaCl) for 10 min at 30 Hz. The homogenate was centrifuged at 13 000×g for 5 min and the supernatant was collected. […]

human serum albumin = target: T2, human serum albumin (Homo sapiens, UniProt P02768); assay: Human serum albumin binding on Chiralpak HSA column; format: in vitro ADME
T2 construct: purchased
T2 sequence (P02768 25-609): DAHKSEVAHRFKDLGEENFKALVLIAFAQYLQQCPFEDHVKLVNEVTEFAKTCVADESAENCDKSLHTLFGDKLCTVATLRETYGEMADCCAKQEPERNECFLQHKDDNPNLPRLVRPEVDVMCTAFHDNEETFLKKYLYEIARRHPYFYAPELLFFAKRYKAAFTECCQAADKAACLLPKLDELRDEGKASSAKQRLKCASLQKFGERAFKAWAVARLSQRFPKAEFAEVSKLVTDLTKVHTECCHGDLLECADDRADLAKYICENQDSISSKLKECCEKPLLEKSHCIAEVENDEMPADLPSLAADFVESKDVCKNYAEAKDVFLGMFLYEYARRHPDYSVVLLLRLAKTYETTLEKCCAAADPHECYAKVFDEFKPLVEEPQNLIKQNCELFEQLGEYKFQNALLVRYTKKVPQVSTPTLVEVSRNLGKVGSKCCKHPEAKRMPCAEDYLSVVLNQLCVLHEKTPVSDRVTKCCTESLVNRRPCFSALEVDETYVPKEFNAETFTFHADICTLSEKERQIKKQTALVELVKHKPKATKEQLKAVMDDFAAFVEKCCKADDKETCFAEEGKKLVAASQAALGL
Method: Approximately 1 MBq of the ^18F-ligand was dissolved in 1 mL of a 1:1 mixture (v/v) of phosphate-buffered saline (PBS, pH 7.4) and n-octanol (n = 18–23). After vigorous mixing of the suspension for 3 min, the vial was centrifuged at 15,000 × g for 3 min and 100 μL aliquots of both layers were measured in a γ-counter. HSA binding of ^19F-^natGa-rhPSMA ligands was determined according to a previously published procedure.

[1] = system: LNCaP tumor-bearing male CB-17 SCID mice; assay: Biodistribution 1 h p.i.; format: in vivo
Method: (§2) LNCaP tumor xenografts were established in 6–8 weeks old male CB-17 SCID mice as described previously.
(§3) 1–3 MBq (0.2 nmol) of the [^18F, ^natGa]rhPSMA inhibitors were injected into the tail vein of LNCaP tumor-bearing male CB-17 SCID mice that were sacrificed 1 h post injection (p.i.) (n = 4 for 7.1, n = 5 for 7.2, n = 4 for 7.3, n = 5 for 7.4 and n = 3 for 7). Selected organs were removed, weighed, and measured in a γ-counter. For competition studies, 8 mg/kg of 2-PMPA (2-(Phosphonomethyl)-pentandioic acid) were co-administered (n = 3).

[2] = system: LNCaP tumor-bearing male CB-17 SCID mice; assay: Biodistribution 1 h p.i. with competition (co-injection of 2-PMPA); format: in vivo; conditions: co-injected with 2-PMPA (8 mg/kg), n = 3
Method: as §2, §3

LNCaP cells = assay: Internalization into LNCaP cells relative to ([125I]I-BA)KuE; format: cell-based; conditions: 1 h, 37 °C, percentage of reference ligand ([125I]I-BA)KuE, n = 3-6
Method: as §1

T1 sequence (Q04609 whole entry): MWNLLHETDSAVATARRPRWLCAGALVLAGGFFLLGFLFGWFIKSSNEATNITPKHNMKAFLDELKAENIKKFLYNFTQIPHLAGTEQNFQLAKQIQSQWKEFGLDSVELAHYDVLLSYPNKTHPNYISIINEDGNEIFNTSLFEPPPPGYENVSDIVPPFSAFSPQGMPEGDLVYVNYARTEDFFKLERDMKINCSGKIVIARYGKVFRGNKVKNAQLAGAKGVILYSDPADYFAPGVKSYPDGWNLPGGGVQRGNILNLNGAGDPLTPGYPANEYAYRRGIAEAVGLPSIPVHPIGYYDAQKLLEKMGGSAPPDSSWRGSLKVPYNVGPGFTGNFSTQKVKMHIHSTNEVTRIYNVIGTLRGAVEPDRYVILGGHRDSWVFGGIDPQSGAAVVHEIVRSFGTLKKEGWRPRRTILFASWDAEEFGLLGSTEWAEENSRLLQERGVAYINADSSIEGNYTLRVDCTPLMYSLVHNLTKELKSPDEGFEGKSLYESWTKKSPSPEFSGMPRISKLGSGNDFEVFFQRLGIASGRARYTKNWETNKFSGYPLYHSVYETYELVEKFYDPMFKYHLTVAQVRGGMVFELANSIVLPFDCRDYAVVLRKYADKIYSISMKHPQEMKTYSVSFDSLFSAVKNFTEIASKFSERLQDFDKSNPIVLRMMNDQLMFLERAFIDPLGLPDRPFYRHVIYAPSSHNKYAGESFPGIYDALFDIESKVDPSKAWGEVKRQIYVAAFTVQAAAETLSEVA

IC50 (PSMA) [nM]	HSA-binding (human serum albumin) [%]	Biodistribution Adrenals [1] [% ID/g]	Biodistribution Blood [1] [% ID/g]	Biodistribution Bone [1] [% ID/g]	Biodistribution Heart [1] [% ID/g]	Biodistribution Intestine [1] [% ID/g]	Biodistribution Kidneys [1] [% ID/g]	Biodistribution Liver [1] [% ID/g]	Biodistribution Lung [1] [% ID/g]	Biodistribution Muscle [1] [% ID/g]	Biodistribution Pancreas [1] [% ID/g]	Biodistribution Spleen [1] [% ID/g]	Biodistribution Stomach [1] [% ID/g]	Biodistribution Tumor [1] [% ID/g]	Biodistribution Adrenals [2] [% ID/g]	Biodistribution Blood [2] [% ID/g]	Biodistribution Bone [2] [% ID/g]	Biodistribution Heart [2] [% ID/g]	Compound	Abundance (enrichment) of the isomer in tissue compared to time point of injection (LNCaP tumor-bearing mice)	further results
6.9 ± 1.4																			CC(C)(C)[Si](F)(c1ccc(C(=O)NC[C@@H](NC(=O)CC[C@H](C(=O)O)N2CCN(CC(=O)[O-])CCN(CC(=O)[O-])CCN(CC(=O)[O-])CC2)C(=O)N[C@H](CCCCNC(=O)CCC(=O)NCCC[C@@H](NC(=O)CC[C@H](NC(=O)N[C@@H](CCC(=O)O)C(=O)O)C(=O)O)C(=O)O)C(=O)O)cc1)C(C)(C)C.[Ga+3] [[^18F, ^natGa]rhPSMA-7.1]		
3.7 ± 1																			CC(C)(C)[Si](F)(c1ccc(C(=O)NC[C@H](NC(=O)CC[C@H](C(=O)O)N2CCN(CC(=O)[O-])CCN(CC(=O)[O-])CCN(CC(=O)[O-])CC2)C(=O)N[C@H](CCCCNC(=O)CCC(=O)NCCC[C@@H](NC(=O)CC[C@H](NC(=O)N[C@@H](CCC(=O)O)C(=O)O)C(=O)O)C(=O)O)C(=O)O)cc1)C(C)(C)C.[Ga+3] [[^18F, ^natGa]rhPSMA-7.2]		
	98	1.3 ± 0.8	0.56 ± 0.20	0.31 ± 0.24	0.32 ± 0.13	0.18 ± 0.07	87.6 ± 28.8	0.35 ± 0.08	0.89 ± 0.38	0.13 ± 0.07	0.21 ± 0.08	10.1 ± 6.3	0.19 ± 0.08	6.5 ± 2.3	0.07 ± 0.10	1.1 ± 0.31	0.57 ± 0.39	0.47 ± 0.09	CC(C)(C)[Si]([18F])(c1ccc(C(=O)NC[C@H](NC(=O)CC[C@H](C(=O)O)N2CCN(CC(=O)[O-])CCN(CC(=O)[O-])CCN(CC(=O)[O-])CC2)C(=O)N[C@H](CCCCNC(=O)CCC(=O)NCCC[C@@H](NC(=O)CC[C@H](NC(=O)N[C@@H](CCC(=O)O)C(=O)O)C(=O)O)C(=O)O)C(=O)O)cc1)C(C)(C)C.[Ga+3] [[^18F, ^natGa]rhPSMA-7.2]	lowest enrichment in blood, liver and kidney, but also the lowest uptake by tumors	Biodistribution Intestine [2]: 0.33 ± 0.10 % ID/g; Biodistribution Kidneys [2]: 10.9 ± 1.0 % ID/g; Biodistribution Liver [2]: 0.46 ± 0.07 % ID/g; Biodistribution Lung [2]: 1.1 ± 0.32 % ID/g; Biodistribution Muscle [2]: 0.09 ± 0.03 % ID/g; Biodistribution Pancreas [2]: 0.12 ± 0.05 % ID/g; Biodistribution Spleen [2]: 0.26 ± 0.07 % ID/g; Biodistribution Stomach [2]: 0.21 ± 0.06 % ID/g; Biodistribution Tumor [2]: 1.0 ± 0.13 % ID/g; Internalization (internalized activity) (LNCaP cells): 192 ± 16 % of reference
4.4 ± 1.1																			CC(C)(C)[Si](F)(c1ccc(C(=O)NC[C@@H](NC(=O)CC[C@@H](C(=O)O)N2CCN(CC(=O)[O-])CCN(CC(=O)[O-])CCN(CC(=O)[O-])CC2)C(=O)N[C@H](CCCCNC(=O)CCC(=O)NCCC[C@@H](NC(=O)CC[C@H](NC(=O)N[C@@H](CCC(=O)O)C(=O)O)C(=O)O)C(=O)O)C(=O)O)cc1)C(C)(C)C.[Ga+3] [[^18F, ^natGa]rhPSMA-7.3]		
	97	2.2 ± 0.83	0.96 ± 0.24	0.38 ± 0.32	0.87 ± 0.17	0.35 ± 0.07	292 ± 45.1	0.69 ± 0.13	2.2 ± 0.35	0.33 ± 0.15	0.63 ± 0.44	16.6 ± 2.6	0.44 ± 0.23	18.3 ± 7.2	0.07 ± 0.09	0.55 ± 0.14	0.34 ± 0.22	0.26 ± 0.04	CC(C)(C)[Si]([18F])(c1ccc(C(=O)NC[C@@H](NC(=O)CC[C@@H](C(=O)O)N2CCN(CC(=O)[O-])CCN(CC(=O)[O-])CCN(CC(=O)[O-])CC2)C(=O)N[C@H](CCCCNC(=O)CCC(=O)NCCC[C@@H](NC(=O)CC[C@H](NC(=O)N[C@@H](CCC(=O)O)C(=O)O)C(=O)O)C(=O)O)C(=O)O)cc1)C(C)(C)C.[Ga+3] [[^18F, ^natGa]rhPSMA-7.3]	higher	Biodistribution Intestine [2]: 0.94 ± 0.97 % ID/g; Biodistribution Kidneys [2]: 15.5 ± 2.2 % ID/g; Biodistribution Liver [2]: 0.46 ± 0.14 % ID/g; Biodistribution Lung [2]: 0.69 ± 0.10 % ID/g; Biodistribution Muscle [2]: 0.09 ± 0.02 % ID/g; Biodistribution Pancreas [2]: 0.11 ± 0.02 % ID/g; Biodistribution Spleen [2]: 0.35 ± 0.02 % ID/g; Biodistribution Stomach [2]: 0.76 ± 0.74 % ID/g; Biodistribution Tumor [2]: 1.5 ± 0.4 % ID/g; Internalization (internalized activity) (LNCaP cells): 161 ± 9 % of reference
3.6 ± 0.7																			CC(C)(C)[Si](F)(c1ccc(C(=O)NC[C@H](NC(=O)CC[C@@H](C(=O)O)N2CCN(CC(=O)[O-])CCN(CC(=O)[O-])CCN(CC(=O)[O-])CC2)C(=O)N[C@H](CCCCNC(=O)CCC(=O)NCCC[C@@H](NC(=O)CC[C@H](NC(=O)N[C@@H](CCC(=O)O)C(=O)O)C(=O)O)C(=O)O)C(=O)O)cc1)C(C)(C)C.[Ga+3] [[^18F, ^natGa]rhPSMA-7.4]		
